This note sets out measurements from article PMC9905731, “PIN1 and PIN4 inhibition via parvulin impeders Juglone, PiB, ATRA, 6,7,4′-THIF, KPT6566, and EGCG thwarted hepatitis B virus replication” (Frontiers in Microbiology, 2023).

The test system of assay [1] is HBV-infected HepG2-hNTCP-C9 cells. The assay is described as follows: HBV replication in HBV-infected HepG2-hNTCP-C9 cells. It is filed as cell-based, hepatitis B virus. Particulars: 9 days; 20 μM Juglone or PiB, 30 μM ATRA, 6,7,4′-THIF or KPT6566, 40 μM EGCG; vs solvent. The protocol:
Figure 9 PIN1 and PIN4 Inhibition via Juglone, PiB, ATRA, 6,7,4′-THIF, KPT6566, and EGCG abrogate HBV replication in HBV-infected cells. […] HepG2-hNTCP-C9 cells were seeded and infected, as described previously, in the “Material and Methods” section. Infected cells (lanes 2–3) were treated with solvent (lane 2) or 20 μM Juglone, 20 μM PiB, 30 μM ATRA, 30 μM 6,7,4′-THIF, 30 μM KPT6566, 40 μM EGCG (lane 3) for 9 days, and lysates were subjected to SDS-PAGE and immunoblotting, NAGE, Northern blotting, and Southern blotting. The shown data are representation from three independent experiments. The statistical significance was determined by using Student’s t-test. *p < 0.05, **p < 0.005, ***p < 0.0005 relative to the corresponding control.
HBV inoculum was harvested from HepAD38 cells for infection experiments. HepAD38 cells in DMEM plus 10% FBS, 1% PS, G418 (0.5 mg/ml), insulin (5 μg/ml), and hydrocortisone hemisuccinate (50 μM) were grown, and on every third day after passage of day 10th (till 31st), the media supernatants were collected and concentrated via 20 to 60% sucrose gradient by ultra-centrifugation (Beckman Coulter Optima L-90 K) method, as described previously ([Saeed et al., 2019], [2021]). The HBV DNAs from the pelleted precipitant were examined by Southern blotting. […] The following day, the cell media was refreshed after PBS washing and maintained in 2.5% DMSO containing media. On the 9th day post-infection, the cellular lysates were prepared and subjected to SDS-PAGE and immunoblotting, core particle immunoblotting, and Southern blot analysis. At 5 days post-infection, HBV RNA levels were determined by Northern blotting.
Juglone (Sigma Aldrich, AG17724), PiB (Calbiochem, CAS 64005–90-9), ATRA (Sigma-Aldrich, R2625), 6,7,4′-THIF (Chem Faces, CFN90796), KPT6566 (ProbeChem, PC-61182), or EGCG (Sigma Aldrich, 989–51-5) was treated to Huh7, HepAD38, HepG2, HepG2.2.15, and HepG2-hNTCP-C9 cells. Prior to the conduct of experiments, the cytotoxic effects of Juglone, PiB, ATRA, 6,7,4′-THIF, KPT6566, or EGCG were examined via MTT assay (3-[4,5-dimethylththiazol-2-yl]-2,5-diphenyltetrazolium bromide), as described previously ([Bichko et al., 1985]; [Piracha et al., 2018], [2020]; [Saeed et al., 2019], [2021]). Briefly, selected HCC cell lines (HepG2, Huh7, HepG2.2.15, and HepAD38) in 6 cm plates were treated with Juglone (20 μM), PiB (20 μM), ATRA (30 μM), 6,7,4′-THIF (30 μM), KPT6566 (30 μM), or EGCG (40 μM) at transfection or at the time of TC removal from HepAD38 cells. Juglone (20 μM in ethanol, Sigma Aldrich, AG17724) was treated to 1.3 mer HBV-WT transfected Huh7 cells (Figure 3A) or TC-depleted HepAD38 cells (Figure 3B) or to 1.3 mer HBV-WT transfected HepG2 (Figure 3C) or HepG2.2.15 (Figure 3D) cells for 72 h. PiB (20 μM in DMSO, Calbiochem, CAS 64005-90-9) was treated for 72 h to 1.3 mer HBV-WT transfected Huh7 cells (Figure 4A) or TC-depleted HepAD38 cells (Figure 4B) or to 1.3 mer HBV-WT transfected HepG2 cells (Figure 4C) or HepG2.2.15 (Figure 4D) cells. To examine the effects on HBV replication, ATRA (30 μM in DMSO, R2625 Sigma-Aldrich) was treated for 72 h to 1.3 mer HBV-WT transfected Huh7 cells (Figure 5A) or TC-depleted HepAD38 cells (Figure 5) or to 1.3 mer HBV-WT transfected HepG2 cells (Figure 5C) or HBV replicating HepG2.2.15 (Figure 5D) cells. 6,7,4′-THIF (30 μM in DMSO, CFN90796 Chem Faces) was treated for 72 h to 1.3 mer HBV-WT transfected Huh7 cells (Figure 6A) or TC-depleted HepAD38 cells (Figure 6B) or to 1.3 mer HBV-WT transfected HepG2 cells (Figure 6C) or HBV replicating HepG2.2.15 (Figure 6D) cells. KPT-6566 (30 μM in DMSO, PC-61182 ProbeChem) was treated for 72 h to 1.3 mer HBV-WT transfected Huh7 cells (Figure 7A) or TC-depleted HepAD38 cells (Figure 7B) or to 1.3 mer HBV-WT transfected HepG2 cells (Figure 7C) or HBV replicating HepG2.2.15 (Figure 7D) cells. […]

The next assay deals with T1, PIN1 (Homo sapiens, UniProt Q13526).
T1 construct: Since the endogenous PIN1 and PIN4 levels remained higher in HBV replicating and non-replicating HCC-derived cell lines; endogenous in cells; host or cells: Huh7, HepAD38, HepG2, HepG2.2.15 (human HCC cell lines)
Put plainly: PIN1 expression by immunoblotting in HCC cells. It is filed as cell-based. Particulars: 30 μM ATRA, 72 h. A general note: In western blotting, separated proteins are transferred to a membrane and probed.

Another assay addresses PIN4 (Homo sapiens, UniProt Q9Y237). Put plainly: PIN4 expression by immunoblotting in HCC cells. In kind it is cell-based. Particulars: 30 μM ATRA, 72 h.

The structures appear in SMILES notation.

T1 sequence (Q13526 whole entry): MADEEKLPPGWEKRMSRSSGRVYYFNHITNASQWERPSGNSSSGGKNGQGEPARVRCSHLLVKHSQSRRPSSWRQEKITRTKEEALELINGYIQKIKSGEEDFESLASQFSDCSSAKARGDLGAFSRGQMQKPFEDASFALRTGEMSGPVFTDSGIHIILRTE
Sequence of PIN4 (Q9Y237 whole entry): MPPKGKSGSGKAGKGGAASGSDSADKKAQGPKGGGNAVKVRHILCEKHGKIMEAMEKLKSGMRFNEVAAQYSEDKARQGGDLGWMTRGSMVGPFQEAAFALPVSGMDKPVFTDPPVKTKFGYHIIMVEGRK

`O=c1c(-c2ccc(O)cc2)coc2cc(O)c(O)cc12` [6,7,4′-THIF, 6,7-dihydroxy-3-(4-hydroxyphenyl)-4H-chromen-4-one]: the “HBV replication in infected cells (HBc, HBV transcripts, core particles, HBV DNA)” value (“HBV replication in infected cells” below) in assay [1] is listed as “restricted HBV replication”. On to `CC1=C(/C=C/C(C)=C/C=C/C(C)=C/C(=O)O)C(C)(C)CCC1` [ATRA, All-trans-retinoic acid], for which, in assay [1], the “HBV replication in infected cells” value is “restricted HBV replication”. For the same compound, the “expression level of PIN1” value at PIN1 is reported as “reduced”. For the same compound, the “expression level of PIN4” value at PIN4 is recorded as “reduced”. Consider `O=C(O[C@@H]1Cc2c(O)cc(O)cc2O[C@@H]1c1cc(O)c(O)c(O)c1)c1cc(O)c(O)c(O)c1` [EGCG, Epigallocatechin gallate], for which the “HBV replication in infected cells” value in assay [1] is recorded as “restricted HBV replication”. On the same count and under the same terms, the result for `O=C1C=CC(=O)c2c(O)cccc21` [Juglone, 5-hydroxyl-1,4-naphthoquinone] reads “restricted HBV replication”; that for `CC(C)(C)c1ccc(S(=O)(=O)N=C2C=C(SCC(=O)O)C(=O)c3ccccc32)cc1` [KPT6566, 2-[[4-[[[4-(1,1-dimethylethyl)phenyl]sulfonyl]imino]-1,4-dihydro-1-oxo-2-naphthalenyl]thio] acetic acid], “restricted HBV replication”; that for `CCOC(=O)CN1C(=O)c2ccc3c4c(ccc(c24)C1=O)C(=O)N(CC(=O)OCC)C3=O` [PiB, 1,3,6,8-tetrahydro-1,3,6,8-tetraoxo-benzo [lmn][3,8] phenanthroline-2,7-diacetic acid, 2,7-diethyl ester], “restricted HBV replication”.
